Laboratory results from ChEMBL document CHEMBL1201862, “PubChem BioAssay data set” (2004).
Activity calls are given as the source filed them.

Legend:
[1] = target: Voltage-dependent T-type calcium channel subunit alpha-1H (Homo sapiens, UniProt O95180); format: functional;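 also: channel activity triggered by adding a high calcium stimulation buffer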
[2] = target: T1, Carboxy-terminal domain RNA polymerase II polypeptide A small phosphatase 1 (Homo sapiens, UniProt Q9GZU7); assay: CTDSP1 inhibitors, concentration-response, biochemical, absorbance readout, ultra-high-throughput screen actives (AID 540297); format: functional
T1 sequence (Q9GZU7 whole entry): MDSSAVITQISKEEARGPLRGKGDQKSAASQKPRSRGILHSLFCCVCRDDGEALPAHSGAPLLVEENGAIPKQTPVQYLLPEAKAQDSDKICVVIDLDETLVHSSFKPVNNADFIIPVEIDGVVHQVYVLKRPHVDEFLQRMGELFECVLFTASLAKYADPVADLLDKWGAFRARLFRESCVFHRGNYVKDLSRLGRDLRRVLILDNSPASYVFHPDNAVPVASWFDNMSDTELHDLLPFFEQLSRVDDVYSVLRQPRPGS

[3] = target: T2, Heat shock factor protein 1 (Mus musculus, UniProt P38532); assay: decrease of HSF1-responsive luciferase luminescence – cell-based, NIH3T3, dose retest, confirmation (AID 2382); format: functional;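 also: NIH3T3 fibroblasts with HSF1-driven luciferase reporter stressed by proteasome inhibitor MG132; luminescence from HSF1-driven luciferase expression after 8 hours of MG132 stress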
T2 sequence (P38532 whole entry): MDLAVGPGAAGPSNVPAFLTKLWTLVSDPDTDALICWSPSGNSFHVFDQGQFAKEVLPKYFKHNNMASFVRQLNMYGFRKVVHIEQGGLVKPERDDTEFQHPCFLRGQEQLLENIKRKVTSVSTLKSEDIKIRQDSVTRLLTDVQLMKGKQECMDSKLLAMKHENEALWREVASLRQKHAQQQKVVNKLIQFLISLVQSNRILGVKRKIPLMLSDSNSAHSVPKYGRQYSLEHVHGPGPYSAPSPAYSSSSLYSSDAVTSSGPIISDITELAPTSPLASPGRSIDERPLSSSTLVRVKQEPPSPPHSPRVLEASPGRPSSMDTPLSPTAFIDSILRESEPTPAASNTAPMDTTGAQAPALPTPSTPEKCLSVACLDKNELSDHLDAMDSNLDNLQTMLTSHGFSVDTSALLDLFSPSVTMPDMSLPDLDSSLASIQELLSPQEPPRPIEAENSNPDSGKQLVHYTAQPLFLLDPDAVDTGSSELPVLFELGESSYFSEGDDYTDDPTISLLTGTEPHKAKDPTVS

[4] = microbe, parasite or virus in culture; format: functional; conditions: Mycobacterium tuberculosis
INS1 = assay: INS-1E survival protection against cytokine death – cell-based, luminescence, retest, dose response (AID 449756); format: functional; conditions: Rattus norvegicus;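 also: cell death triggered by IL-1 beta plus TNF-alpha plus IFN-gamma mixture; protective hits raise ATP signal compared with cytokine alone wells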
Streptokinase A = target: T3, Streptokinase A (Streptococcus pyogenes serotype M1, UniProt P10520); assay: viability-normalized secreted streptokinase activity reduction – plasminogen activation absorbance, OD405, dose response (AID 1914); format: functional, Streptococcus pyogenes M1 GAS;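 also: secreted streptokinase activity via plasminogen activation per viability signal from cell pellet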
T3 sequence (P10520 whole entry): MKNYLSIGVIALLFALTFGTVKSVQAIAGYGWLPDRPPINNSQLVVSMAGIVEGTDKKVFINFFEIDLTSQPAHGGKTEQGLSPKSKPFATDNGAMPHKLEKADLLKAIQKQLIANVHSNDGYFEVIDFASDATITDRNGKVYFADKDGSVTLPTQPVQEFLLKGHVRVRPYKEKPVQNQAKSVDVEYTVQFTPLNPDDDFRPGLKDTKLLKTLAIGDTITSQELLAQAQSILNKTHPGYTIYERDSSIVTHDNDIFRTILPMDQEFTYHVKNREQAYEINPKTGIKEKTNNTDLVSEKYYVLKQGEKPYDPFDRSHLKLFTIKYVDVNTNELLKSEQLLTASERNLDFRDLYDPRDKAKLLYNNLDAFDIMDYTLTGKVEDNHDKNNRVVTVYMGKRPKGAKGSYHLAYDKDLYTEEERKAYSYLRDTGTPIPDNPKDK

Streptococcus = assay: GAS UMAA2166 growth inhibition – luminescence, BacTiterGlo, counter-screen for streptokinase expression inhibitor project, dose response (AID 1915); format: functional, organism-based;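 also: potency for reduction of bacterial viability or growth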
[5] = tested on: Streptococcus sp. 'group A'; assay: Streptococcus pyogenes SK(-)GAS viability under kanamycin – luminescence, BacTiterGlo, confirmation, counter-screen for streptokinase expression inhibitor project, dose response (AID 1900); format: functional, organism-based
SUMO-activating enzyme = SUMO-activating enzyme (Homo sapiens, UniProt Q9UBT2); assay: blockers of UBC9-mediated SUMO conjugation – biochemical, AlphaScreen, SUMOylation inhibitor project, confirmation (AID 2018); format: functional
[6] = target: T4, Calpain-2 catalytic subunit (Sus scrofa, UniProt P43367); assay: m-calpain protease blockers, concentration series – biochemical, fluorogenic peptide substrate, dose response (AID 1420); format: functional
T4 sequence (P43367 whole entry): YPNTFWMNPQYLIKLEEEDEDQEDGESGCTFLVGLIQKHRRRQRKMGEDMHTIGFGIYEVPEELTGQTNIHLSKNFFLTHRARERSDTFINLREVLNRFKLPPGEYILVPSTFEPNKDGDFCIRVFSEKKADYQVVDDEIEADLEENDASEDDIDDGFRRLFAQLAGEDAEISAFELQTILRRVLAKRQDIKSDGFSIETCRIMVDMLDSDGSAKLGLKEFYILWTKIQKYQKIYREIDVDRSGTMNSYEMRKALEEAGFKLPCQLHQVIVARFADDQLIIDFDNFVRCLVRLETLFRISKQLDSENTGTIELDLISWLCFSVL

BJ [7] = assay: BJ-TERT-LT-ST fibroblast viability loss – cell-based, RAS-independent, luminescence, dose response (AID 1935); format: functional; conditions: Homo sapiens;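 also: BJ fibroblasts immortalized with TERT plus LT and ST oncogenes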
[8] = DRD fibroblast viability loss – cell-based, non-viral oncogenic, luminescence, dose response (AID 1934); format: functional; conditions: Homo sapiens
BJ [9] = assay: BJ-TERT fibroblast viability loss – cell-based, RAS-independent, luminescence, dose response (AID 1933); format: functional; conditions: Homo sapiens
BJ [10] = assay: cells; format: functional, cell-based; conditions: Homo sapiens
Protein RecA = target: T5, Protein RecA (Mycobacterium tuberculosis, UniProt P9WHJ3); assay: Fluorescence Cell-Free Homogeneous Dose Retest to Identify Inhibitors of RecA-Intein Splicing Activity. [Related pubchem assays (depositor defined):AID2097, AID2223, AID489010, AID492950]; format: functional
T5 sequence (P9WHJ3 whole entry): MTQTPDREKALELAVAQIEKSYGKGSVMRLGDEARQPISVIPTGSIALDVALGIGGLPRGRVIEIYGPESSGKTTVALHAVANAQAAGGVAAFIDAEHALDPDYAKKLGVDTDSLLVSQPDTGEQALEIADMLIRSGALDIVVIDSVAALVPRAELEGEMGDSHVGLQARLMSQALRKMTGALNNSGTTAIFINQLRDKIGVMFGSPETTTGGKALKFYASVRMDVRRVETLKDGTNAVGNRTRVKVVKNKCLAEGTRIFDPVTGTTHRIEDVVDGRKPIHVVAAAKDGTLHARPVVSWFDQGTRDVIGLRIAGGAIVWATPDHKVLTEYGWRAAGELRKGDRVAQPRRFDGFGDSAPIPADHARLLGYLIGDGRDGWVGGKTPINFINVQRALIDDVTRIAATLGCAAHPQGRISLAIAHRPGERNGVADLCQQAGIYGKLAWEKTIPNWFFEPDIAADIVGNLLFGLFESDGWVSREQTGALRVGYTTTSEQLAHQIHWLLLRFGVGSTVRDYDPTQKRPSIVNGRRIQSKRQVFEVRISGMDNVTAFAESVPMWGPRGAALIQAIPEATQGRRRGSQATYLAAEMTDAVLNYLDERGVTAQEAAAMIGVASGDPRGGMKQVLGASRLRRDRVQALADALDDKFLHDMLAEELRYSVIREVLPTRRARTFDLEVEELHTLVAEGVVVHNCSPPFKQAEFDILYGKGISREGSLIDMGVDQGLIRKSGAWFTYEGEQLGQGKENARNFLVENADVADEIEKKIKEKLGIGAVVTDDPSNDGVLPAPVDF

[11] = target: T6, Replicative DNA helicase DnaB (Mycobacterium tuberculosis, UniProt P9WMR3); assay: DnaB intein splicing inhibitors, dose response, biochemical, cell-free fluorescence (AID 449749); format: functional
T6 sequence (P9WMR3 whole entry): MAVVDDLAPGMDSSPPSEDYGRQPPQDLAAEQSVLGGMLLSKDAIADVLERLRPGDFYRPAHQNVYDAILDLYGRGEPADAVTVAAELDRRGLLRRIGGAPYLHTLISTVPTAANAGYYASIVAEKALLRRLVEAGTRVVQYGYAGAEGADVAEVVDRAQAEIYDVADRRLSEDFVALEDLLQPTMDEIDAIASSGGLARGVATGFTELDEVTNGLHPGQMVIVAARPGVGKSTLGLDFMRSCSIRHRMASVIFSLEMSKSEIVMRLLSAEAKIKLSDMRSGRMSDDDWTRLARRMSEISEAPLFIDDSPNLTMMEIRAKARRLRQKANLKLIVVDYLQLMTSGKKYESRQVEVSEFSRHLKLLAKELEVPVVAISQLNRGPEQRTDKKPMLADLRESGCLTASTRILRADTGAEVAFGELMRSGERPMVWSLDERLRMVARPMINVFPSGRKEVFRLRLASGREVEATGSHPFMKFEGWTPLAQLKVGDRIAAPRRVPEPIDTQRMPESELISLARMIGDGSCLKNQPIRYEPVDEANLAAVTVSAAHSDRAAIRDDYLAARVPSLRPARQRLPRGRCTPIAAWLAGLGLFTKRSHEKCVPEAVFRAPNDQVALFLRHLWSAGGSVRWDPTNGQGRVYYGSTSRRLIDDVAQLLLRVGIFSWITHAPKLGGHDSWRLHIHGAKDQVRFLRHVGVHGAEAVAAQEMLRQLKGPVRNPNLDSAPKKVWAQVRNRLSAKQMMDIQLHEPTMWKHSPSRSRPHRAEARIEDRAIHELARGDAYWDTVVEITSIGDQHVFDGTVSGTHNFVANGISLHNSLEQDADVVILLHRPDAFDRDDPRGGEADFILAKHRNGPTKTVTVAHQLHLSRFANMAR

Sequence of Voltage-dependent T-type calcium channel subunit alpha-1H (O95180 whole entry, the tested form may be a part): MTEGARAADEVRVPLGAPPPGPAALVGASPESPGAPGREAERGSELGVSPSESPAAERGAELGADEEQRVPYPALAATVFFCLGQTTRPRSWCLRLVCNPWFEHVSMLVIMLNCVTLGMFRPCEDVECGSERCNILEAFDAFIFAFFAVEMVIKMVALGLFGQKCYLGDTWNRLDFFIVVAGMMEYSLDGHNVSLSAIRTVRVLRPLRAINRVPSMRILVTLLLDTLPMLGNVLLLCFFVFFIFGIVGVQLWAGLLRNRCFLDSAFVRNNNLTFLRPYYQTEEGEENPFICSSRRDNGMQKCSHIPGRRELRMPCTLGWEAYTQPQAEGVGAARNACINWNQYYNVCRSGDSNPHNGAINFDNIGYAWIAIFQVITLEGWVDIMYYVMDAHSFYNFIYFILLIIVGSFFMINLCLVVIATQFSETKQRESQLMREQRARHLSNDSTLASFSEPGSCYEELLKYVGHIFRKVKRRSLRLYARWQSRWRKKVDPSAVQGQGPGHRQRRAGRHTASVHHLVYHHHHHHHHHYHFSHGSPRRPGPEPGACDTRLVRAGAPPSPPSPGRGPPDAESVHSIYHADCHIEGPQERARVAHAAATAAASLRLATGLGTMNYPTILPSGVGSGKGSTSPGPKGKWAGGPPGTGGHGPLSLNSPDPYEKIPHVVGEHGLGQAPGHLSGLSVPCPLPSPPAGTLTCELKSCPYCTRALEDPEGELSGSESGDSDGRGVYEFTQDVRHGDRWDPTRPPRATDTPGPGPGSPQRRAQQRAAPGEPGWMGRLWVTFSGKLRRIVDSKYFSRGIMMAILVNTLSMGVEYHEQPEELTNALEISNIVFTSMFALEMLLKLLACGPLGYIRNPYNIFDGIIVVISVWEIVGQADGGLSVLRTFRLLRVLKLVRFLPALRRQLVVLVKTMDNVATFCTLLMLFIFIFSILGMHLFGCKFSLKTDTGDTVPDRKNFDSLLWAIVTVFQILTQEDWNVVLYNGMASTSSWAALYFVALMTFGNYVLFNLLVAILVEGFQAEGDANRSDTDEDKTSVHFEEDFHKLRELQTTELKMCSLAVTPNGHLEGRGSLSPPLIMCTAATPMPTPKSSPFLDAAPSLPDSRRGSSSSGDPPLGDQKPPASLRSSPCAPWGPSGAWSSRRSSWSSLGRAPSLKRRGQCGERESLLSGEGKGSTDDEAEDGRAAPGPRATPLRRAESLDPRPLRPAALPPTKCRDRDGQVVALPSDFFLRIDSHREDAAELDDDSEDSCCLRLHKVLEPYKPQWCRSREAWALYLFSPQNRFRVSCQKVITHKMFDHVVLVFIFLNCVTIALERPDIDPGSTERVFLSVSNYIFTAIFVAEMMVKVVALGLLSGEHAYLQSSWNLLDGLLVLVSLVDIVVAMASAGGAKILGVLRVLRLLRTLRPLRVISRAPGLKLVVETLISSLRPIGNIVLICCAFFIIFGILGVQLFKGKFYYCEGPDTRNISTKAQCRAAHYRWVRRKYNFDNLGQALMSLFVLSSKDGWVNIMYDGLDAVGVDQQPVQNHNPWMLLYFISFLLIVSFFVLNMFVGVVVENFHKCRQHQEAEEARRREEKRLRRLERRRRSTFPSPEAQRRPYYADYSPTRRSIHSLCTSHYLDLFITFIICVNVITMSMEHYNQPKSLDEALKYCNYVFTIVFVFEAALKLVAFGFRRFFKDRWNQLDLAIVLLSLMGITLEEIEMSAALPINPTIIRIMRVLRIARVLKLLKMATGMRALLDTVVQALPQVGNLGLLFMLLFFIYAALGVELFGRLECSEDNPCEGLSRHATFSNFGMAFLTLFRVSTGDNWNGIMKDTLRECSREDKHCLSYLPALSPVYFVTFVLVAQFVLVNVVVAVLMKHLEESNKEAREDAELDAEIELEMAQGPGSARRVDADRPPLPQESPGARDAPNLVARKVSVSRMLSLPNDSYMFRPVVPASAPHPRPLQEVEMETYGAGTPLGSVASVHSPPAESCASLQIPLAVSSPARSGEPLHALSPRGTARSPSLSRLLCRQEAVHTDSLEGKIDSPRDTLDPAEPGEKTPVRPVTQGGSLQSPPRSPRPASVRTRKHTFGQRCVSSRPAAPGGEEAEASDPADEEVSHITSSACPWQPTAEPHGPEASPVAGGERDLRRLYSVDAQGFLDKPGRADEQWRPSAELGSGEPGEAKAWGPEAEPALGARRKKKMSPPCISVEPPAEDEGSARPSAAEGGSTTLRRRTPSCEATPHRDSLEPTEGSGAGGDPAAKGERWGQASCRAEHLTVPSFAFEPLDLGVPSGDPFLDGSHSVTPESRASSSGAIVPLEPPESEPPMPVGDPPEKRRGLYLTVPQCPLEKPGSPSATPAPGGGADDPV
Sequence of SUMO-activating enzyme (Q9UBE0 whole entry): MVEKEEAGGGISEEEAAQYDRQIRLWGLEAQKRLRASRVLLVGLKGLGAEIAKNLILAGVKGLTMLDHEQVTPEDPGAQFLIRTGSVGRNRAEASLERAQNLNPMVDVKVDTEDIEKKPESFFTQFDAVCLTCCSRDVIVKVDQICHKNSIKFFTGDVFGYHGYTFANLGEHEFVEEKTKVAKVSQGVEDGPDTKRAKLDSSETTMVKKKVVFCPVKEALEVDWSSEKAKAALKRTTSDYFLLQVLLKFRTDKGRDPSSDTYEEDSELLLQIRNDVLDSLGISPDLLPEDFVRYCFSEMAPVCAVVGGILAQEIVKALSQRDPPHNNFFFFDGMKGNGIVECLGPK
Sequence of SUMO-activating enzyme (Q9UBT2 whole entry): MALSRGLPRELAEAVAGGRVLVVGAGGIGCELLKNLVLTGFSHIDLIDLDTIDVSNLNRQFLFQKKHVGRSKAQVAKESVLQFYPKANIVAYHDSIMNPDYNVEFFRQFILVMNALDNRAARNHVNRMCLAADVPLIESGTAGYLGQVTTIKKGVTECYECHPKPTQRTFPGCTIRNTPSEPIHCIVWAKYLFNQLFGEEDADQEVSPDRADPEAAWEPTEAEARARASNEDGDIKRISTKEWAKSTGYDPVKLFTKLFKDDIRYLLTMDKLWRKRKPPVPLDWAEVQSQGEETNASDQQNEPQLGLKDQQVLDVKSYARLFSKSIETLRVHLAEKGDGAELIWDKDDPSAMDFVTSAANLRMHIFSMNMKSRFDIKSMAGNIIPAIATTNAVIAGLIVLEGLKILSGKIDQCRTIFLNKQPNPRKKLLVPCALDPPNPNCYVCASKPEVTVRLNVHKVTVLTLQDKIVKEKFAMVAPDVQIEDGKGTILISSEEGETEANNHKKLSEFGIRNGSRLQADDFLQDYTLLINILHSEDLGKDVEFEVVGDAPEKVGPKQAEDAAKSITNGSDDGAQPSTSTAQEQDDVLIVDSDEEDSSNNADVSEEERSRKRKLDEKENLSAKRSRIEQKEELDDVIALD

Structure (SMILES): CC(=O)N1c2ccccc2N(Cc2ccc(C)cc2C)C(=O)C1(C)C
- EC50 [1]: 4.43 µM (active)

Structure (SMILES): CC(C)[C@H](NC(=O)Cc1ccccc1)C(=O)OCc1cc(=O)n2c(n1)sc1ccccc12
- IC50 [2]: 3.58 µM (active)
- EC50 [3]: 21.5 µM (active)

Structure (SMILES): CC(C)NC(=S)N/N=C/c1cc(Br)ccc1O
- CC50 [4]: 38.5 µM (active)
- AC50 (INS1): 1.65 µM (active)

Structure (SMILES): O=C(O)CNC(=O)CC1SC(NNC2=NC(=O)CS2)=NC1=O (stereo unspecified)
- IC50 [2]: 5.27 µM (active)

Structure (SMILES): COc1cc2ccccc2cc1C(=O)NC(=S)Nc1ccc(C(=O)O)cc1
- EC50 (Streptokinase A): > 150 µM (not active)
- EC50 (Streptococcus): 60.9 µM (active)
- EC50 [5]: 8.15 µM (active)
- IC50 [2]: 4.12 µM (active)

Structure (SMILES): Cc1cccc(C)c1OCC(=O)N=Nc1c(O)[nH]c2ccc(Br)cc12
- IC50 (SUMO-activating enzyme): 10.6 µM (active)

Structure (SMILES): CCOc1ccc(C(=O)Nc2c3c(nn2C(C)(C)C)CSC3)cc1OCC
- EC50 [1]: 3.79 µM (active)

Structure (SMILES): CCc1ccc(S(=O)(=O)NCc2csc(-c3ccccc3)n2)s1
- EC50 [1]: 4.61 µM (active)

Structure (SMILES): CC(=O)c1sc(NC(=O)COc2ccc(C(C)C)c(C)c2)nc1C
- IC50 [6]: 9.95 µM (not active)

Structure (SMILES): Cc1cccc(NS(=O)(=O)c2ccc(NC(=O)CN(c3cc([N+](=O)[O-])ccc3C)S(C)(=O)=O)cc2)c1
- EC50 (BJ [7]): 7.77 µM (inconclusive)
- EC50 [8]: > 150 µM (not active)
- EC50 (BJ [9]): 22.7 µM (active)
- EC50 (BJ [10]): 7.28 µM (active)

Structure (SMILES): Cn1c2ccccc2c2cc(C(=O)NNC(=O)CCl)sc21
- EC50 (Protein RecA): 15.7 µM (active)
- CC50 [4]: 21.3 µM (active)
- AC50 [11]: > 380 µM (inactive)
